The data set can be described thus: Intraocular pharmacokinetics of dexamethasone palmitate and dexamethasone following intravitreal administration. Conditions: following IVT injection of 800 ug of prodrug. An excerpt:
Analytes and internal standard (roxithromycine) were extracted from the tissues using acetonitrile and separated by reverse phase liquid chromatography with a C8 column and a gradient mobile phase. […] The unweighed linear model was applied.
All concentrations are expressed in ng/g.

With `C[C@@H]1C[C@H]2[C@@H]3CCC4=CC(=O)C=C[C@]4(C)[C@@]3(F)[C@@H](O)C[C@]2(C)[C@@]1(O)C(=O)CO` [D, dexamethasone], the “time for which therapeutic levels were maintained in the target tissues” value was “at least 2 months”.
